Columns and labels:
Type in all cases: in vivo, mouse
G1H-G93A transgenic mice [1] = assay: Exercise tolerance test: footprint test; conditions: 5 mg/kg oral daily from 80th day (before onset), score 0-4
Method: (§1) The following five kinds of exercise tolerance tests were conducted every fifth day from the 70th day after birth to evaluate the ability to exercise in the respective exercise tolerance tests. That is, the days for the exercise tolerance tests were every fifth days, such as the 70th day, 75th day, 80th day, 85th day and so on, after birth. The exercise tolerance tests were conducted throughout the survival period, and the post-mortem evaluation was based on the definitions of the following five kinds of exercise tolerance tests.
Both hindlimbs of a mouse are dipped in a black ink bottle, and then the mouse is allowed to walk on white paper. The footprints of the two hindlimbs of the mouse after the walking are analyzed. […] The post-mortem evaluation of the footprint test is defined as score 4.

G1H-G93A transgenic mice [2] = assay: Histopathological study: number of spinal cord anterior horn cells; conditions: end stage; for difference to placebo group in number of spinal cord anterior horn cells (cervical, thoracic or lumbar segment): P>0.05, Mann-Whitney's U test; for number of spinal cord anterior horn cells in the cervical segment / number of spinal cord anterior horn cells in the lumbar segment / number of spinal cord anterior horn cells in the thoracic segment: per five HE sections, average±SD
Method: The mouse supplied to the experiment is anesthetized by intraperitoneal injection of pentobarbital sodium in an amount of 1 mL per kg of the mouse body weight. After confirming that the mouse is completely under anesthesia, laparotomy and thoracotomy are performed, and blood is completely removed from the visceral organs of the whole body by perfusion of physiological saline at 37° C. via the left ventricle and aorta. The complete removal of blood from the visceral organs of the whole body is carried out by confirming complete removal of the blood of the aorta in the thoracic part and abdominal part, mesenteric arteries, liver, kidneys, and small arteries on the surfaces of the stomach, small intestine and large intestine under direct visual inspection. Subsequently, perfusion of 50 mL of physiological saline at 37° C. is performed. Immediately thereafter, the perfusion is performed with a fixative (4% paraformaldehyde supplemented with 0.1 M cacodylate buffer, pH 7.4). The spinal cord is removed and re-fixed with the same fixative for 18 hours. After the fixation of spinal cord tissue, each spinal cord segments is cut out to examine the spinal cord tissue. For the detailed analyses of spinal cord tissues, two segments of the cervical spinal cord (upper and lower cervical segments), three segments of the thoracic spinal cord (upper, middle, and lower thoracic segments), and two segments of lumbar spinal cord (upper and lower lumbar segments) were cut out to provide seven segments in total. Each spinal cord segments are respectively embedded in paraffin to produce paraffin blocks, and then cut into paraffin sections having a thickness of 5 μm using a microtome. The paraffin sections are subjected to hematoxylin and eosin (HE) staining.
For a quantitative analysis, serial 25 paraffin sections having a thickness of 5 μm were produced in series from the respective segment paraffin blocks of the spinal cord, and the 1st section, 7th section, 13th section, 19th section and 25th section were selected and subjected to HE staining. Specifically, paraffin sections were selected such that one paraffin section was taken at a […], and 5 HE preparations were produced from a single spinal cord segments. Therefore, 10 HE preparations from two areas for the entire cervical spinal cord, 15 HE preparations from three areas for the entire thoracic spinal cord, and 10 HE preparations from two areas for the entire lumbar spinal cord, were produced.
In order to calculate the number of motor neurons in the anterior horn, all of the HE stained sections were observed under a light microscope (BX41: Olympus Corp., Tokyo, Japan) equipped with a 3CCD digital color camera system for the microscope (FX380: Olympus Corp., Tokyo, Japan). Subsequently, photographs of the anterior horn region (corresponding to VII, VIII and IX Rexed areas) in the HE stained sections of the respective myelomere tissues of the spinal cord were taken, and the images were analyzed using an image analysis-filing software (FLVFS-LS Ver. 1.12: Olympus Corp., Tokyo, Japan). In regard to the definition of the motor neuron in the anterior horn of spinal cord (spinal cord anterior horn cells), cells in the HE stained sections, which have a nucleus carrying a definite nucleolus and contain a cell body having a diameter of 25 μm or more, were selected as the spinal cord anterior horn cells (Klivenyi P, et al., Nature Med 1999; 5:347-351, Kong J & Xu Z, J Neurosci 1998; 18:3241-3250, and Stephens B, et al., Neuropathol Appl Neurobiol 2001; 27:352-361). Based on this definition, the number of spinal cord anterior horn cells was counted for each of the HE stained sections. The respective numbers of spinal cord anterior horn cells in the cervical spinal cord, thoracic spinal cord and lumbar spinal cord of one mouse was calculated from the total number of spinal cord anterior horn cells in five HE stained sections. […]

G1H-G93A transgenic mice [3] = assay: Exercise tolerance test: beam balance test; conditions: 5 mg/kg oral daily from 80th day (before onset), score 0-2
Method: as §1
The apparatus used in the beam balance test is constructed by maintaining a wooden beam having a diameter of 1.5 cm horizontally, and installing platforms which serve as footholds, on the respective sides in a distance of 30 cm. A mouse is placed on the platform on one side, and the time taken by the mouse to cross over the beam which is 30 cm in length and to arrive at the platform on the opposite side is measured. The evaluation of the beam balance test for the mouse was performed based on the following criteria: Score 0=The time is 10 seconds or less; Score 1=The time is more than 10 seconds to 15 seconds; and Score 2=The time is more than 15 seconds, or the mouse falls down. The post-mortem evaluation of the beam balance test is defined as score 2.

[4] = 5 mg/kg oral daily from 80th day after birth (before onset)
[5] = 5 mg/kg oral daily from the day of onset (after onset)

Row | SMILES | Footprint test score (G1H-G93A transgenic mice [1]; 70th day after birth) | Footprint test score (G1H-G93A transgenic mice [1]; 75th day after birth) | Footprint test score (G1H-G93A transgenic mice [1]; 80th day after birth) | Footprint test score (G1H-G93A transgenic mice [1]; 85th day after birth) | Footprint test score (G1H-G93A transgenic mice [1]; 90th day after birth) | Footprint test score (G1H-G93A transgenic mice [1]; 95th day after birth) | Footprint test score (G1H-G93A transgenic mice [1]; 100th day after birth) | Footprint test score (G1H-G93A transgenic mice [1]; 105th day after birth) | Footprint test score (G1H-G93A transgenic mice [1]; 110th day after birth) | Footprint test score (G1H-G93A transgenic mice [1]; 115th day after birth) | Footprint test score (G1H-G93A transgenic mice [1]; 120th day after birth) | Footprint test score (G1H-G93A transgenic mice [1]; 125th day after birth) | Footprint test score (G1H-G93A transgenic mice [1]; 130th day after birth) | Footprint test score (G1H-G93A transgenic mice [1]; 135th day after birth) | Footprint test score (G1H-G93A transgenic mice [1]; 140th day after birth) | difference to placebo group in number of spinal cord anterior horn cells (cervical, thoracic or lumbar segment) (G1H-G93A transgenic mice [2]; [4]) | number of spinal cord anterior horn cells in the cervical segment (G1H-G93A transgenic mice [2]; [4]) | number of spinal cord anterior horn cells in the lumbar segment (G1H-G93A transgenic mice [2]; [4]) | number of spinal cord anterior horn cells in the thoracic segment (G1H-G93A transgenic mice [2]; [4]) | Beam balance test score (G1H-G93A transgenic mice [3]; 70th day after birth, 5 mg/kg) | other results
1 | CC(C)(C)COc1ccc(-n2cc(C(=O)O)cn2)cc1C#N [compound (a), 1-[3-cyano-4-(2,2-dimethylpropoxy)phenyl]-1H-pyrazole-4-carboxylic acid] | 0.0±0.0 | 0.0±0.0 | 0.0±0.0 | 0.0±0.0 | 0.0±0.0 | 0.0±0.0 | 0.0±0.0 | 0.0±0.0 | 0.1±0.3 | 0.6±0.7 | 1.8±0.9 | 2.8±0.4 | 3.4±0.5 | 3.9±0.3 | 4.0±0.0 | no significant difference | 3.3±3.1 | 3.7±3.3 | 1.6±2.1 | 0.0±0.0 | difference to placebo group in number of spinal cord anterior horn cells (cervical, thoracic or lumbar segment) (G1H-G93A transgenic mice [2]; [5]): no significant difference; number of spinal cord anterior horn cells in the cervical segment (G1H-G93A transgenic mice [2]; [5]): 4.8±3.7; number of spinal cord anterior horn cells in the lumbar segment (G1H-G93A transgenic mice [2]; [5]): 4.1±4.4; number of spinal cord anterior horn cells in the thoracic segment (G1H-G93A transgenic mice [2]; [5]): 2.3±2.2; Beam balance test score (G1H-G93A transgenic mice [3]; 75th day after birth, 5 mg/kg): 0.0±0.0; Beam balance test score (G1H-G93A transgenic mice [3]; 80th day after birth, 5 mg/kg): 0.0±0.0; Beam balance test score (G1H-G93A transgenic mice [3]; 85th day after birth, 5 mg/kg): 0.0±0.0; Beam balance test score (G1H-G93A transgenic mice [3]; 90th day after birth, 5 mg/kg): 0.0±0.0; Beam balance test score (G1H-G93A transgenic mice [3]; 95th day after birth, 5 mg/kg): 0.0±0.0; Beam balance test score (G1H-G93A transgenic mice [3]; 100th day after birth, 5 mg/kg): 0.0±0.0; Beam balance test score (G1H-G93A transgenic mice [3]; 105th day after birth, 5 mg/kg): 0.0±0.0; Beam balance test score (G1H-G93A transgenic mice [3]; 110th day after birth, 5 mg/kg): 0.1±0.3; Beam balance test score (G1H-G93A transgenic mice [3]; 115th day after birth, 5 mg/kg): 0.7±0.8; Beam balance test score (G1H-G93A transgenic mice [3]; 120th day after birth, 5 mg/kg): 1.2±0.9; Beam balance test score (G1H-G93A transgenic mice [3]; 125th day after birth, 5 mg/kg): 1.7±0.5; Beam balance test score (G1H-G93A transgenic mice [3]; 130th day after birth): 2.0 ± 0.0; Beam balance test score (G1H-G93A transgenic mice [3]; 135th day after birth): 2.0 ± 0.0; Beam balance test score (G1H-G93A transgenic mice [3]; 140th day after birth): 2.0 ± 0.0; Beam balance test score (G1H-G93A transgenic mice [3]; from the 130th day to 140th day after birth): 2.0±0.0
2 | N#Cc1cc(-c2n[nH]c(-c3ccncc3)n2)ccn1 [compound (b), 4-(5-pyridin-4-yl-1H-[1,2,4]triazol-3-yl)pyridine-2-carbonitrile] | 0.0±0.0 | 0.0±0.0 | 0.0±0.0 | 0.0±0.0 | 0.0±0.0 | 0.0±0.0 | 0.0±0.0 | 0.0±0.0 | 0.1±0.3 | 0.6±0.7 | 1.8±1.0 | 2.8±0.4 | 3.4±0.5 | 3.9±0.3 | 4.0±0.0 | no significant difference | 4.6±2.0 | 5.3±2.7 | 1.9±1.7 | 0.0±0.0 | Beam balance test score (G1H-G93A transgenic mice [3]; 75th day after birth, 5 mg/kg): 0.0±0.0; Beam balance test score (G1H-G93A transgenic mice [3]; 80th day after birth, 5 mg/kg): 0.0±0.0; Beam balance test score (G1H-G93A transgenic mice [3]; 85th day after birth, 5 mg/kg): 0.0±0.0; Beam balance test score (G1H-G93A transgenic mice [3]; 90th day after birth, 5 mg/kg): 0.0±0.0; Beam balance test score (G1H-G93A transgenic mice [3]; 95th day after birth, 5 mg/kg): 0.0±0.0; Beam balance test score (G1H-G93A transgenic mice [3]; 100th day after birth, 5 mg/kg): 0.0±0.0; Beam balance test score (G1H-G93A transgenic mice [3]; 105th day after birth, 5 mg/kg): 0.0±0.0; Beam balance test score (G1H-G93A transgenic mice [3]; 110th day after birth, 5 mg/kg): 0.1±0.3; Beam balance test score (G1H-G93A transgenic mice [3]; 115th day after birth, 5 mg/kg): 0.6±0.7; Beam balance test score (G1H-G93A transgenic mice [3]; 120th day after birth, 5 mg/kg): 1.5±0.5; Beam balance test score (G1H-G93A transgenic mice [3]; 125th day after birth): 2.0 ± 0.0; Beam balance test score (G1H-G93A transgenic mice [3]; 130th day after birth): 2.0 ± 0.0; Beam balance test score (G1H-G93A transgenic mice [3]; 135th day after birth): 2.0 ± 0.0; Beam balance test score (G1H-G93A transgenic mice [3]; 140th day after birth): 2.0 ± 0.0; Beam balance test score (G1H-G93A transgenic mice [3]; from the 125th day to 140th day after birth): 2.0±0.0
